Data as given in PMC12748989 (Nature Communications, 2025).

Key:
PBMC = conditions: 12.5 µM

Compound	Average (percentage cell inhibition), Dmastoparan MDA-MB231 12.5uM (MDA-MB-231 cells)	Average (percentage cell inhibition), Mastoparan PBMC (PBMC)
CC[C@H](C)[C@H](NC(=O)[C@H](CCCCN)NC(=O)[C@H](CCCCN)NC(=O)[C@H](C)NC(=O)[C@H](CC(C)C)NC(=O)[C@H](C)NC(=O)[C@H](C)NC(=O)[C@H](CC(C)C)NC(=O)[C@H](C)NC(=O)[C@H](CCCCN)NC(=O)[C@H](CC(C)C)NC(=O)[C@H](CC(N)=O)NC(=O)[C@@H](N)CCCCN)C(=O)N[C@@H](CC(C)C)C(N)=O [K1]	35.9182%	1.227%
CC[C@H](C)[C@H](N)C(=O)N[C@@H](CC(N)=O)C(=O)N[C@@H](CC(C)C)C(=O)N[C@@H](CCCCN)C(=O)N[C@@H](C)C(=O)N[C@@H](CC(C)C)C(=O)N[C@@H](C)C(=O)N[C@@H](C)C(=O)N[C@@H](CCCNC(=N)N)C(=O)N[C@@H](C)C(=O)N[C@@H](CCCCN)C(=O)N[C@@H](CCCCN)C(=O)N[C@H](C(=O)N[C@@H](CC(C)C)C(N)=O)[C@@H](C)CC [R9]	12.7524%	5.887%
CC[C@H](C)[C@H](NC(=O)[C@H](CCCCN)NC(=O)[C@H](CCCCN)NC(=O)[C@H](C)NC(=O)[C@H](CC(C)C)NC(=O)[C@H](C)NC(=O)[C@H](C)NC(=O)[C@H](CC(C)C)NC(=O)[C@H](C)NC(=O)[C@H](CCCCN)NC(=O)[C@H](CC(C)C)NC(=O)[C@H](CC(N)=O)NC(=O)[C@@H](N)CCC(N)=O)C(=O)N[C@@H](CC(C)C)C(N)=O [Q1]	44.2177%	13.6421%
CC[C@H](C)[C@H](N)C(=O)N[C@@H](CC(N)=O)C(=O)N[C@@H](CC(C)C)C(=O)N[C@@H](CCCCN)C(=O)N[C@@H](C)C(=O)N[C@@H](CC(C)C)C(=O)N[C@@H](C)C(=O)N[C@@H](C)C(=O)N[C@@H](CC(C)C)C(=O)N[C@@H](C)C(=O)N[C@@H](CCCCN)C(=O)N[C@@H](CCCCN)C(=O)N[C@H](C(=O)N[C@@H](CC(N)=O)C(N)=O)[C@@H](C)CC [N14]	-1.851%	9.15%
CC[C@H](C)[C@H](N)C(=O)N[C@@H](CC(N)=O)C(=O)N[C@@H](CC(C)C)C(=O)N[C@@H](CCCCN)C(=O)N[C@@H](C)C(=O)N[C@@H](CCC(=O)O)C(=O)N[C@@H](C)C(=O)N[C@@H](C)C(=O)N[C@@H](CC(C)C)C(=O)N[C@@H](C)C(=O)N[C@@H](CCCCN)C(=O)N[C@@H](CCCCN)C(=O)N[C@H](C(=O)N[C@@H](CC(C)C)C(N)=O)[C@@H](C)CC [E6]	39.2363%	3.211%
CC[C@H](C)[C@H](N)C(=O)N[C@@H](CC(N)=O)C(=O)N[C@@H](CC(C)C)C(=O)N[C@@H](CC(C)C)C(=O)N[C@@H](C)C(=O)N[C@@H](CC(C)C)C(=O)N[C@@H](C)C(=O)N[C@@H](C)C(=O)N[C@@H](CC(C)C)C(=O)N[C@@H](C)C(=O)N[C@@H](CCCCN)C(=O)N[C@@H](CCCCN)C(=O)N[C@H](C(=O)N[C@@H](CC(C)C)C(N)=O)[C@@H](C)CC [L4]	34.0791%	15.2128%
CC[C@H](C)[C@H](N)C(=O)N[C@@H](CC(N)=O)C(=O)N[C@@H](CC(C)C)C(=O)N[C@@H](CCCCN)C(=O)N[C@@H](Cc1c[nH]cn1)C(=O)N[C@@H](CC(C)C)C(=O)N[C@@H](C)C(=O)N[C@@H](C)C(=O)N[C@@H](CC(C)C)C(=O)N[C@@H](C)C(=O)N[C@@H](CCCCN)C(=O)N[C@@H](CCCCN)C(=O)N[C@H](C(=O)N[C@@H](CC(C)C)C(N)=O)[C@@H](C)CC [H5]	26.5106%	3.516%
CC[C@H](C)[C@H](N)C(=O)N[C@@H](CC(N)=O)C(=O)N[C@@H](CC(C)C)C(=O)N[C@@H](CCCCN)C(=O)N[C@@H](C)C(=O)N[C@@H](CC(C)C)C(=O)N[C@@H](C)C(=O)N[C@@H](C)C(=O)N[C@@H](CC(C)C)C(=O)N[C@@H](C)C(=O)N[C@@H](CCCCN)C(=O)N[C@@H](CCC(N)=O)C(=O)N[C@H](C(=O)N[C@@H](CC(C)C)C(N)=O)[C@@H](C)CC [Q12]	35.4495%	-3.934%
CC[C@H](C)[C@H](N)C(=O)N[C@@H](CC(N)=O)C(=O)N[C@@H](CC(C)C)C(=O)N[C@@H](CCCCN)C(=O)N[C@@H](C)C(=O)N[C@@H](CC(C)C)C(=O)N[C@@H](C)C(=O)N[C@@H](C)C(=O)N[C@@H](C)C(=O)N[C@@H](C)C(=O)N[C@@H](CCCCN)C(=O)N[C@@H](CCCCN)C(=O)N[C@H](C(=O)N[C@@H](CC(C)C)C(N)=O)[C@@H](C)CC [A9]	23.1985%	-3.746%
CC[C@H](C)[C@H](N)C(=O)N[C@@H](CC(N)=O)C(=O)N[C@@H](CC(C)C)C(=O)N[C@@H](CCCCN)C(=O)N[C@@H](C)C(=O)N[C@@H](CC(C)C)C(=O)N[C@@H](C)C(=O)N[C@@H](C)C(=O)N[C@@H](CC(C)C)C(=O)N[C@@H](CC(C)C)C(=O)N[C@@H](CCCCN)C(=O)N[C@@H](CCCCN)C(=O)N[C@H](C(=O)N[C@@H](CC(C)C)C(N)=O)[C@@H](C)CC [L10]	86.3514%	52.7294%
CC[C@H](C)[C@H](N)C(=O)NCC(=O)N[C@@H](CC(C)C)C(=O)N[C@@H](CCCCN)C(=O)N[C@@H](C)C(=O)N[C@@H](CC(C)C)C(=O)N[C@@H](C)C(=O)N[C@@H](C)C(=O)N[C@@H](CC(C)C)C(=O)N[C@@H](C)C(=O)N[C@@H](CCCCN)C(=O)N[C@@H](CCCCN)C(=O)N[C@H](C(=O)N[C@@H](CC(C)C)C(N)=O)[C@@H](C)CC [G2]	71.0378%	15.6884%
CC[C@H](C)[C@H](N)C(=O)N[C@@H](CC(N)=O)C(=O)N[C@@H](CC(C)C)C(=O)N[C@@H](CCCCN)C(=O)N[C@@H](C)C(=O)N[C@@H](CC(C)C)C(=O)N[C@@H](C)C(=O)N[C@@H](C)C(=O)N[C@@H](CC(C)C)C(=O)N[C@@H](C)C(=O)N[C@@H](CCCCN)C(=O)N1CCC[C@H]1C(=O)N[C@H](C(=O)N[C@@H](CC(C)C)C(N)=O)[C@@H](C)CC [P12]	-19.0406%	-2.814%
CC[C@H](C)[C@H](NC(=O)[C@H](CCCCN)NC(=O)[C@H](CCCCN)NC(=O)[C@H](C)NC(=O)[C@H](CC(C)C)NC(=O)[C@H](C)NC(=O)[C@H](C)NC(=O)[C@H](CC(C)C)NC(=O)[C@H](C)NC(=O)[C@H](CCCCN)NC(=O)[C@H](CC(C)C)NC(=O)[C@H](CC(N)=O)NC(=O)CN)C(=O)N[C@@H](CC(C)C)C(N)=O [G1]	44.9778%	6.436%
H-INLKALAALAKKLL-NH2 [L13]	83.7429%	38.8767%
CC[C@H](C)[C@H](N)C(=O)N[C@@H](CC(N)=O)C(=O)N[C@@H](CC(C)C)C(=O)N[C@H](C(=O)N[C@@H](C)C(=O)N[C@@H](CC(C)C)C(=O)N[C@@H](C)C(=O)N[C@@H](C)C(=O)N[C@@H](CC(C)C)C(=O)N[C@@H](C)C(=O)N[C@@H](CCCCN)C(=O)N[C@@H](CCCCN)C(=O)N[C@H](C(=O)N[C@@H](CC(C)C)C(N)=O)[C@@H](C)CC)[C@@H](C)CC [I4]	30.9221%	5.736%
CC[C@H](C)[C@H](N)C(=O)N[C@@H](CC(N)=O)C(=O)N[C@@H](CC(C)C)C(=O)N[C@@H](CCCCN)C(=O)N[C@@H](C)C(=O)N[C@@H](CC(C)C)C(=O)N[C@@H](C)C(=O)N[C@H](C(=O)N[C@@H](CC(C)C)C(=O)N[C@@H](C)C(=O)N[C@@H](CCCCN)C(=O)N[C@@H](CCCCN)C(=O)N[C@H](C(=O)N[C@@H](CC(C)C)C(N)=O)[C@@H](C)CC)[C@@H](C)CC [I8]	40.0855%	17.9616%
CC[C@H](C)[C@H](N)C(=O)N[C@@H](CC(N)=O)C(=O)N[C@@H](CC(C)C)C(=O)N[C@@H](CCCCN)C(=O)N[C@@H](C)C(=O)N[C@@H](CC(C)C)C(=O)N[C@@H](C)C(=O)N[C@@H](C)C(=O)N[C@@H](CC(C)C)C(=O)N[C@@H](C)C(=O)N[C@@H](CCCCN)C(=O)N[C@@H](CCCCN)C(=O)N[C@@H](C)C(=O)N[C@@H](CC(C)C)C(N)=O [A13]	24.196%	5.573%
CC[C@H](C)[C@H](N)C(=O)N[C@@H](CC(N)=O)C(=O)N[C@@H](CC(C)C)C(=O)N[C@@H](CCCCN)C(=O)N[C@@H](C)C(=O)N[C@@H](CC(C)C)C(=O)N[C@@H](C)C(=O)N[C@@H](C)C(=O)N[C@@H](CC(C)C)C(=O)N[C@@H](C)C(=O)NCC(=O)N[C@@H](CCCCN)C(=O)N[C@H](C(=O)N[C@@H](CC(C)C)C(N)=O)[C@@H](C)CC [G11]	29.778%	15.1682%
CC[C@H](C)[C@H](N)C(=O)N[C@@H](CC(N)=O)C(=O)N[C@@H](CC(C)C)C(=O)N[C@@H](CCCCN)C(=O)N[C@@H](C)C(=O)N[C@@H](CC(C)C)C(=O)N[C@@H](C)C(=O)N[C@@H](C)C(=O)N[C@@H](CC(C)C)C(=O)N[C@H](C(=O)N[C@@H](CCCCN)C(=O)N[C@@H](CCCCN)C(=O)N[C@H](C(=O)N[C@@H](CC(C)C)C(N)=O)[C@@H](C)CC)[C@@H](C)O [T10]	27.2715%	8.853%
CC[C@H](C)[C@H](N)C(=O)N[C@@H](CC(N)=O)C(=O)N[C@@H](CC(C)C)C(=O)N[C@@H](CCCCN)C(=O)N[C@@H](C)C(=O)N[C@@H](CC(C)C)C(=O)N[C@@H](CC(C)C)C(=O)N[C@@H](C)C(=O)N[C@@H](CC(C)C)C(=O)N[C@@H](C)C(=O)N[C@@H](CCCCN)C(=O)N[C@@H](CCCCN)C(=O)N[C@H](C(=O)N[C@@H](CC(C)C)C(N)=O)[C@@H](C)CC [L7]	74.1173%	35.4322%
